Test results published in patent US5958682A (priority 1993, dated 1999).
“Also recorded” adds a separate entry of the source.

Key:
E. coli nitroreductase = E. coli nitroreductase (Escherichia coli, UniProt P38489); assay: % drug reduction by E. coli nitroreductase during V79 cell treatment; assay type: biochemical; details: 2 hours at 37° C.
Excerpt: The initial cell density was 2×10^5 /mL.

[1] = test system: nitroreductase-transduced NIH3T3 cells; assay: Bystander effect, 3H-thymidine incorporation in mixtures of 3T3-NTR14 and untransduced NIH3T3 cells; assay type: cell-based; details: 50% transduced cells, FIG. 2
Excerpt: FIG. 2. […] Results are plotted as the quantity of ^3 H-thymidine incorporation into live cells […] (Y-axis) versus the percentage of transduced cells in the sample population (X-axis).

[2] = test system: NTR-expressing NIH3T3 cells; assay: Killing of serum-deprived (arrested) NTR-expressing NIH3T3 cells; assay type: cell-based; details: arrest by serum deprivation, FIG. 3a
Excerpt: (§1) FIG. 3. Two graphs comparing the nitroreductase/CB 1954 and thymidine kinase/gancyclovir enzyme/prodrug systems.

HB4a/NR cells [3] = assay: Enzymatic reduction of CB 1954 by HB4a/NR cell lysate (HPLC); assay type: biochemical, human; details: 100 μM CB 1954, 500 μM NADH, pH7, 37° C., FIG. 5
Description: CB 1954 (100 μM) and NADH (500 μM) were incubated with a cell lysate prepared by sonication (250 μl, 1 mg/mL protein) in 10 mM sodium phosphate buffer (pH7) at 37° C. At various times aliquots (10 μl) were injected onto a Partisphere SCX (110×4.7 mm) HPLC column and eluted isocratically (2 ml/min) with 50 mM NaH2 PO4 in 1% (v/v) methanol. The eluate was continuously monitored for absorption at 260, 310, 340 nm using a diode-array detector. Alternatively, [U-^3 H]CB 1954 was added to give an activity of 1.6×10^5 dpm per nmole). Samples (0.3 ml) were collected and their tritium activity determined by liquid scintillation counting. Protein concentration was determined by a standard method (Biorad), calibrated against bovine albumin.

HB4a/NR cells [4] = assay: Cell survival of HB4a/NR cells, plates scored by eye for cell growth; assay type: cell-based, human; details: 2 hour exposure
Description: (§2) Cells were trypsinised and resuspended in fresh media at 2×10^5 cells per mL. They were then treated for two hours with CB 1954 (10 μl of appropriate stock in DMSO). The treated cells were then spun down, washed with fresh media, and plated out in triplicate at various concentrations. Cells were fixed and stained after 14 days incubation at 37° C. in a humidified atmosphere of 5% CO2 and 95% air.
(§3) The plating efficiency of both the HB4a/NR and HB4a/REP8 cell lines was poor and cells only grew when plated at a high initial cell density (1×10^4 per dish). These plates were scored by eye for cell growth. There is a dramatic difference in cell survival between the two cell lines.

[5] = Cell survival of HB4a/REP8 cells, plates scored by eye for cell growth; assay type: cell-based; details: human, 2 hour exposure, read-out: dose up to which no cytotoxicity is shown
Description: as §2, §3

HB4a/NR cells [6] = assay: DNA interstrand crosslinks, sedimentation in alkaline sucrose; assay type: cell-based, human
Description: HB4a/NR cells were radiolabelled by growth for 48 hours in [^3 h]-thymidine. The cells were then treated with either 0, 10 or 50 μM CB 1954 for 24 hours and their DNA then analysed by sedimentation in alkaline sucrose.

[7] = test system: TK-expressing NIH3T3 cells; assay: Killing of arrested TK-expressing NIH3T3 cells; assay type: cell-based; details: 10^-8 to 10^-3 M, FIG. 3b
Excerpt: as §1

[8] = 50 μM drug + 500 μM NADH, no nitroreductase
[9] = 50 μM drug + nitroreductase 2 μg/ml + 500 μM NADH
[10] = 50 μM drug + nitroreductase 2 μg/ml, no NADH
[11] = 50 μM drug alone, no NADH, no nitroreductase

Description for V79 cells: NADH was used as a co-factor for both enzymes.
All treatments were for 2 hours at 37° C. and the cells were then plated out for their resulting colony forming ability. The nitroreductase concentration was 2 μg/ml and NADH was used as a co-factor. The initial cell density was 2×10^5 /mL.
Various concentrations of the prodrug were incubated with 1 mL of V79 cells (2×10^5 /mL), NADH (500 μL) and NR (2, 5 or 10 μg/mL) in PBS. After 2 h at 37° C., the cells were harvested and assayed for colony forming ability.

Question: With `NC(=O)c1cc(N(CCCl)CCCl)c([N+](=O)[O-])cc1[N+](=O)[O-]` [SN23862, 5-(bis(2'-chloroethyl)amino)-2,4-dinitrobenzamide] as the molecule, how does the “% DRUG REDUCTION” value (E. coli nitroreductase; [8]) read?
Answer: Its value is less than 1.0%.

Question: What about the “% DRUG REDUCTION” value (E. coli nitroreductase; [9]) of the same molecule?
Answer: Its value is 95%.

Question: What about the “% DRUG REDUCTION” value (E. coli nitroreductase; [10]) of the same molecule?
Answer: Its value is less than 1.0%.

Question: What about the “% DRUG REDUCTION” value (E. coli nitroreductase; [11]) of the same molecule?
Answer: The value was less than 1.0%.

Question: For `NC(=O)c1cc(N2CC2)c([N+](=O)[O-])cc1[N+](=O)[O-]` [CB 1954, 5-(aziridin-1-yl)-2,4-dinitrobenzamide], which “% DRUG REDUCTION” value (E. coli nitroreductase; [8]) is on record?
Answer: The value was less than 1.0%.

Question: What about the “% DRUG REDUCTION” value (E. coli nitroreductase; [9]) of the same molecule?
Answer: The value was 72%.

Question: And the “% DRUG REDUCTION” value (E. coli nitroreductase; [10])?
Answer: Its value is less than 1.0%.

Question: What about the “% DRUG REDUCTION” value (E. coli nitroreductase; [11]) of the same molecule?
Answer: The value was less than 1.0%.

Question: What about the “inhibition of 3H-thymidine incorporation” value [1] of the same molecule?
Answer: The value was 90%.

Question: What about the “effect of cell arrest on killing by the prodrug” value [2] of the same molecule?
Answer: The value was “does not affect their killing; also recorded: does not affect the relative cytotoxicity”.

Question: And the “decrease in the concentration of CB 1954” value (HB4a/NR cells [3])?
Answer: The value was “time dependent decrease”.

Question: What about the “dose at which cytotoxicity is exhibited” value (HB4a/NR cells [4]) of the same molecule?
Answer: The value was 1.0 µM.

Question: What about the MNTC at 2 h [5] of the same molecule?
Answer: The MNTC at 2 h was greater than 100 µM.

Question: What about the DNA breaks (HB4a/NR cells [6]; 10 μM CB 1954 for 24 hours) of the same molecule?
Answer: Its DNA breaks is 25 per 10^9 daltons of DNA.

Question: And the DNA crosslinks (HB4a/NR cells [6]; 10 μM CB 1954 for 24 hours)?
Answer: Its DNA crosslinks is “about 6 per 10^9 daltons of DNA”.

Question: And the DNA breaks (HB4a/NR cells [6]; 50 μM CB 1954 for 24 hours)?
Answer: Its DNA breaks is 28 per 10^9 daltons of DNA.

Question: And the DNA crosslinks (HB4a/NR cells [6]; 50 μM CB 1954 for 24 hours)?
Answer: Its DNA crosslinks is 12 per 10^9 daltons of DNA.

Question: With `Nc1nc(O)c2ncn(COC(CO)CO)c2n1` [GCV, gancyclovir] as the molecule, how does the “effect of cell arrest on killing by the prodrug” value [7] read?
Answer: Its value is “prevents GCV killing; also recorded: prevents gancyclovir (GCV) cytotoxicity”.

Question: Which “cytotoxicity of the prodrug in the presence of NR” value (V79 cells; NR 2, 5 or 10 μg/mL, NADH, 2 h at 37° C., FIG. 1) does the source give for `Cc1c2oc3c(C)ccc(C(=O)N[C@@H]4C(=O)N[C@H](C(C)C)C(=O)N5CCC[C@H]5C(=O)N(C)CC(=O)N(C)[C@@H](C(C)C)C(=O)O[C@@H]4C)c3nc-2c(C(=O)N[C@@H]2C(=O)N[C@H](C(C)C)C(=O)N3CCC[C@H]3C(=O)N(C)CC(=O)N(C)[C@@H](C(C)C)C(=O)O[C@@H]2C)c(NC(=O)OCc2ccc([N+](=O)[O-])cc2)c1=O` here?
Answer: The value was “greatly enhanced in the presence of NR”.

B1: Nitroreductase: E. coli nitroreductase, enzyme that converts the prodrug into a cytotoxic drug (protein)
chain: MDIISVALKRHSTKAFDASKKLTPEQAEQIKTLLQYSPSSTNSQPWHFIVASTEEGKARVAKSAAGNYVFNERKMLDASHVVVFCAKTAMDDVWLKLVVDQEDADGRFATPEAKAANDKGRKFFADMHRKDLHDDAEWMAKQVYLNVGNFLLGVAALGLDAVPIEGFDAAILDAEFGLKEKGYTSLVVVPVGHHSVEDFNATLPKSRLPQNITLTEV
Question: With B1 as the molecule, how does the “% SURVIVAL” value (V79 cells; nitroreductase 2 μg/ml alone, no drug, 2 hours at 37° C.) read?
Answer: The value was 94%.
